Test results taken from PubChem BioAssay (NCI).
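Protocol summary: plate cells (96-well), add compound at 5 concentrations, incubate 48 h, interpolate endpoints linearly. TGI: total growth inhibition.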

Assays:
Experiment in all cases: NCI tumour cell line growth inhibition, 48 h
[1] = tested on: ACHN renal
[2] = tested on: NCI-H460 lung
[3] = tested on: SK-OV-3 ovarian
[4] = tested on: SK-MEL-2 melanoma
[5] = tested on: UO-31 renal
[6] = tested on: PC-3 prostate
[7] = tested on: OVCAR-5 ovarian
[8] = tested on: KM12 colon
[9] = tested on: CAKI-1 renal
[10] = tested on: CCRF-CEM leukemia
[11] = tested on: A498 renal
[12] = tested on: LOX IMVI melanoma
[13] = tested on: NCI/ADR-RES ovarian
[14] = tested on: SF-539 CNS
[15] = tested on: HT29 colon
[16] = tested on: BT-549 breast
[17] = tested on: TK-10 renal
[18] = tested on: HCT-15 colon
[19] = tested on: HL-60(TB) leukemia
[20] = tested on: EKVX NSCLC
[21] = tested on: K-562 leukemia
[22] = tested on: HOP-92 NSCLC
[23] = tested on: UACC-257 melanoma
[24] = tested on: M14 melanoma
[25] = tested on: MDA-MB-231 breast
[26] = tested on: A549 NSCLC
[27] = tested on: SNB-75 CNS
[28] = tested on: HS 578T breast
[29] = tested on: OVCAR-8 ovarian
[30] = tested on: COLO 205 colon
[31] = tested on: SN12C renal
[32] = tested on: SF-268 CNS
[33] = tested on: DU-145 prostate
[34] = tested on: MDA-MB-435
[35] = tested on: SR leukemia
[36] = tested on: UACC-62 melanoma
[37] = tested on: SNB-19 CNS
[38] = tested on: RXF 393 renal
[39] = tested on: HOP-62 NSCLC
[40] = tested on: T-47D breast
[41] = tested on: SK-MEL-5 melanoma
[42] = tested on: MCF7 breast
[43] = tested on: OVCAR-4 ovarian
[44] = tested on: MALME-3M melanoma
[45] = tested on: MDA-N
[46] = tested on: IGROV1 ovarian
[47] = tested on: NCI-H23 lung
[48] = tested on: NCI-H522 lung
[49] = tested on: OVCAR-3 ovarian
[50] = tested on: SK-MEL-28 melanoma
[51] = tested on: HCC-2998 colon
[52] = tested on: HCT-116 colon
[53] = tested on: MOLT-4 leukemia
[54] = tested on: SW-620 colon
[55] = tested on: 786-0 renal
[56] = tested on: U251 CNS
[57] = tested on: NCI-H226 lung
[58] = tested on: RPMI-8226 leukemia
[59] = tested on: SF-295 CNS

Compound: COc1cc2cc3c4c(cc(OC)c(OC)c4c2cc1OC)CCN3C
- TGI [1]: 31.7 µM
- TGI [2]: > 27.3 µM
- TGI [3]: > 50 µM
- TGI [4]: 30 µM
- TGI [5]: 40.6 µM
- TGI [6]: > 29.9 µM
- TGI [7]: 49 µM
- TGI [8]: > 50 µM
- TGI [9]: 25.7 µM
- TGI [10]: 7.27 µM
- TGI [11]: > 38.1 µM
- TGI [12]: 16.7 µM
- TGI [13]: > 48.2 µM
- TGI [14]: 40.5 µM
- TGI [15]: > 37.5 µM
- TGI [16]: > 23.6 µM
- TGI [17]: > 23.4 µM
- TGI [18]: > 47.8 µM
- TGI [19]: 18.7 µM
- TGI [20]: > 50 µM
- TGI [21]: > 50 µM
- TGI [22]: > 50 µM
- TGI [23]: 27.3 µM
- TGI [24]: > 50 µM
- TGI [25]: > 44.1 µM
- TGI [26]: > 50 µM
- TGI [27]: 27.8 µM
- TGI [28]: > 50 µM
- TGI [29]: > 50 µM
- TGI [30]: 39.6 µM
- TGI [31]: > 50 µM
- TGI [32]: > 50 µM
- TGI [33]: 19.8 µM
- TGI [34]: > 23.4 µM
- TGI [35]: > 10.8 µM
- TGI [36]: 14.3 µM
- TGI [37]: > 50 µM
- TGI [38]: 12.3 µM
- TGI [39]: > 50 µM
- TGI [40]: 4.1 µM
- TGI [41]: 16.6 µM
- TGI [42]: > 36.4 µM
- TGI [43]: 12 µM
- TGI [44]: 24.9 µM
- TGI [45]: > 50 µM
- TGI [46]: > 43.7 µM
- TGI [47]: > 50 µM
- TGI [48]: 23.9 µM
- TGI [49]: 31.9 µM
- TGI [50]: > 50 µM
- TGI [51]: 33.1 µM
- TGI [52]: > 25.7 µM
- TGI [53]: > 31.4 µM
- TGI [54]: > 50 µM
- TGI [55]: > 50 µM
- TGI [56]: > 50 µM
- TGI [57]: 26.7 µM
- TGI [58]: 12.9 µM
- TGI [59]: > 31.8 µM

Compound: COC(=O)c1c(C)c2c(c(C)c1C(=O)OC)-c1c(C)ccc3ccc(C)c-2c13
- TGI [1]: > 100 µM
- TGI [2]: > 69.4 µM
- TGI [3]: > 100 µM
- TGI [4]: > 100 µM
- TGI [5]: > 100 µM
- TGI [6]: > 100 µM
- TGI [7]: > 100 µM
- TGI [8]: > 100 µM
- TGI [9]: > 100 µM
- TGI [10]: > 100 µM
- TGI [11]: > 100 µM
- TGI [12]: > 86.5 µM
- TGI [13]: > 100 µM
- TGI [14]: > 100 µM
- TGI [15]: 29.6 µM
- TGI [16]: > 100 µM
- TGI [17]: > 100 µM
- TGI [18]: > 55.6 µM
- TGI [19]: > 50.7 µM
- TGI [20]: > 100 µM
- TGI [21]: > 100 µM
- TGI [23]: > 100 µM
- TGI [24]: > 100 µM
- TGI [25]: > 60.6 µM
- TGI [26]: > 100 µM
- TGI [27]: > 100 µM
- TGI [28]: > 100 µM
- TGI [29]: > 100 µM
- TGI [30]: > 100 µM
- TGI [31]: > 100 µM
- TGI [32]: > 100 µM
- TGI [33]: > 100 µM
- TGI [34]: > 100 µM
- TGI [35]: 46.9 µM
- TGI [36]: > 100 µM
- TGI [37]: > 100 µM
- TGI [38]: > 100 µM
- TGI [39]: > 100 µM
- TGI [40]: > 95.7 µM
- TGI [41]: 95.8 µM
- TGI [42]: > 100 µM
- TGI [43]: > 100 µM
- TGI [44]: > 100 µM
- TGI [45]: > 100 µM
- TGI [46]: > 100 µM
- TGI [48]: > 100 µM
- TGI [49]: > 100 µM
- TGI [50]: > 100 µM
- TGI [52]: > 100 µM
- TGI [53]: > 100 µM
- TGI [54]: > 94.5 µM
- TGI [55]: > 100 µM
- TGI [56]: > 100 µM
- TGI [57]: > 100 µM
- TGI [58]: > 100 µM
- TGI [59]: > 87.1 µM

Compound: Cc1ccc(S(=O)(=O)N/N=C2\CCCCCCCCCCC2CN(C)C)cc1 (stereo not drawn)
- TGI [1]: 40.2 µM
- TGI [2]: 25.3 µM
- TGI [3]: 36 µM
- TGI [4]: 22.8 µM
- TGI [5]: 21 µM
- TGI [6]: 30.3 µM
- TGI [7]: 30.9 µM
- TGI [8]: 31.8 µM
- TGI [9]: 50.4 µM
- TGI [10]: 37.2 µM
- TGI [11]: 34.9 µM
- TGI [12]: 31.5 µM
- TGI [13]: 29.3 µM
- TGI [14]: 31.6 µM
- TGI [15]: 29.5 µM
- TGI [16]: 32.1 µM
- TGI [17]: 27.6 µM
- TGI [18]: 29 µM
- TGI [19]: 97.5 µM
- TGI [20]: 70 µM
- TGI [21]: 56.5 µM
- TGI [22]: 24.7 µM
- TGI [23]: 28.7 µM
- TGI [24]: 31.1 µM
- TGI [25]: 34 µM
- TGI [26]: 41 µM
- TGI [28]: 35.6 µM
- TGI [29]: 30.7 µM
- TGI [30]: 31.9 µM
- TGI [31]: 44.4 µM
- TGI [32]: 54.3 µM
- TGI [33]: 34.8 µM
- TGI [34]: 28 µM
- TGI [35]: > 100 µM
- TGI [36]: 32.3 µM
- TGI [37]: 30.4 µM
- TGI [38]: 26.6 µM
- TGI [39]: 33.8 µM
- TGI [40]: 30.2 µM
- TGI [41]: 24 µM
- TGI [42]: 31 µM
- TGI [43]: 68.3 µM
- TGI [44]: 30.9 µM
- TGI [45]: 32.8 µM
- TGI [46]: 30.7 µM
- TGI [47]: 55.8 µM
- TGI [48]: 27.4 µM
- TGI [49]: 32.9 µM
- TGI [50]: 28.2 µM
- TGI [51]: 20.8 µM
- TGI [52]: 28.2 µM
- TGI [53]: > 100 µM
- TGI [54]: 31.8 µM
- TGI [55]: 29.9 µM
- TGI [56]: 29.3 µM
- TGI [57]: 35.2 µM
- TGI [58]: > 100 µM
- TGI [59]: 30.9 µM
